In US7321002B2, “Chiral integrin modulators and methods of use thereof” (Billings Pharmaceuticals, Inc., priority 2000, dated 2008):

Experiments:
[1] = system: HIV-1RF-infected H9 cells; test: HIV-induced syncytium formation: fusion of intact H9 cells with HIV-1RF-infected H9 cells; format: cell-based; conditions: H9 + HIV-1RF-infected H9 cells, 6 to 15 hours at 37° C., FIG. 1
Excerpt: For all the curves, the effect of ajoene enantiomers and enantiomer mixtures on the fusion of cultured, intact H9 cells with HIV-1RF-infected H9 cells is disclosed. The vertical graph axis expresses the maximum amount of syncytia formed in the absence of the compounds (100 percent), while the points on the curves represent percentages of such an amount of syncytia formed in the presence of varying concentrations of the compounds and compound mixtures (micromoles per liter).
Another such method is based on the inhibition of HIV-mediated syncytium formation, a phenomenon known to depend on the functional activity of integrins. The purified Z enantiomers, racemic E-ajoene, and the original 3:1 mixture of racemic Z- and E-ajoenes were taken up in DMSO at a concentration of 10 mg/mL. Dilutions were made in RPMI 1640 medium containing 10% fetal calf serum and 10 mM HEPES (cRPMW). HIV-1RF-infected H9 cells and uninfected H9 cells were washed with cRPMI and resuspended in cRPMI at a density of 4×10^6 per mL. Uninfected cells (50 μL) were mixed with serial dilutions of the compounds (100 μL) and incubated at 37° C. for30 minutes before adding and mixing 50 μL of infected H9 cells. The plates were incubated at 37° C. for 6 to 15 hours before scoring syncytium formation.
The purified enantiomers were taken up in DMSO at a concentration of 10 mg/mL. Dilutions were made in RPMI 1640 medium containing 10% fetal calf serum and 10 mM HEPES (cRPMI). H9 cells (ATCC, Rockville, Md.) infected with HIV-1RF, (NIH AIDS Repository, Rockville, Md.) and uninfected H9 cells were washed with cRPMI and resuspended in cRPMI at a density of 4×10^6 per mL. Uninfected cells (50 μL) were mixed with serial dilutions of the compounds (100 μL) and incubated at 37° C. for 30 min before adding and mixing 50 μL of infected H9 cells. The plates were incubated at 37° C. for 6 to 15 hours before scoring syncytium formation.

VLA-4 = target: T1, VLA-4 (Homo sapiens, UniProt P05556+P13612); test: Inhibition of VLA-4-mediated adhesion of enzyme-labeled PM1 cells to VCAM-1-coated substrata; format: cell-based; conditions: PM1 cells on immobilized VCAM-1; listed as Z(−) enantiomer of ajoene
T1 construct: host or cells: PM1 cells (VLA-4); COS7 cells secrete the VCAM/IgG ligand
T1 sequence (P13612 34-1032): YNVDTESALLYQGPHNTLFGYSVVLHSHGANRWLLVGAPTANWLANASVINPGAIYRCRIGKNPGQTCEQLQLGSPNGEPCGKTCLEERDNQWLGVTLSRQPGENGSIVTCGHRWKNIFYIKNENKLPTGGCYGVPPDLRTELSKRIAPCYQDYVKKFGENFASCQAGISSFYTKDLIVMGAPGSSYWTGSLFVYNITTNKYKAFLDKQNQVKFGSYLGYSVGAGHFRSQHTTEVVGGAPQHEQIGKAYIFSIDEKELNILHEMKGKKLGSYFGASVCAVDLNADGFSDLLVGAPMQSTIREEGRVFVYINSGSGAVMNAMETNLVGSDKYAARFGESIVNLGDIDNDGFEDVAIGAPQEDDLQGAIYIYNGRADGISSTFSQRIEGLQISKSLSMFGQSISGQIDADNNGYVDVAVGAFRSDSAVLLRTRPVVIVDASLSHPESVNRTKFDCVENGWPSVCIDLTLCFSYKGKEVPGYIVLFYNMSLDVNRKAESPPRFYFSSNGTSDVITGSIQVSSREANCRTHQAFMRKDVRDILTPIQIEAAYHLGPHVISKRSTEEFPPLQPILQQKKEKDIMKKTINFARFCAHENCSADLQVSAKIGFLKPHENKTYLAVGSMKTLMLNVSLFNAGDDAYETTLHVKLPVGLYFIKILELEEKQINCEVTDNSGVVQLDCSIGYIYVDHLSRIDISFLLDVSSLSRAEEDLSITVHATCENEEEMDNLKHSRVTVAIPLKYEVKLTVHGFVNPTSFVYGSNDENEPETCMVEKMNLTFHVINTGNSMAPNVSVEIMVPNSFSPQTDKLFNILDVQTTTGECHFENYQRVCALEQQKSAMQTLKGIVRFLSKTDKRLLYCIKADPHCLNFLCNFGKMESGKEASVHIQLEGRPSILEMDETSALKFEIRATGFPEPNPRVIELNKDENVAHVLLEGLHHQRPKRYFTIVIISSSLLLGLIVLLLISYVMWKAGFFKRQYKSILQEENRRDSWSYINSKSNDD
T1 sequence (P05556 21-798): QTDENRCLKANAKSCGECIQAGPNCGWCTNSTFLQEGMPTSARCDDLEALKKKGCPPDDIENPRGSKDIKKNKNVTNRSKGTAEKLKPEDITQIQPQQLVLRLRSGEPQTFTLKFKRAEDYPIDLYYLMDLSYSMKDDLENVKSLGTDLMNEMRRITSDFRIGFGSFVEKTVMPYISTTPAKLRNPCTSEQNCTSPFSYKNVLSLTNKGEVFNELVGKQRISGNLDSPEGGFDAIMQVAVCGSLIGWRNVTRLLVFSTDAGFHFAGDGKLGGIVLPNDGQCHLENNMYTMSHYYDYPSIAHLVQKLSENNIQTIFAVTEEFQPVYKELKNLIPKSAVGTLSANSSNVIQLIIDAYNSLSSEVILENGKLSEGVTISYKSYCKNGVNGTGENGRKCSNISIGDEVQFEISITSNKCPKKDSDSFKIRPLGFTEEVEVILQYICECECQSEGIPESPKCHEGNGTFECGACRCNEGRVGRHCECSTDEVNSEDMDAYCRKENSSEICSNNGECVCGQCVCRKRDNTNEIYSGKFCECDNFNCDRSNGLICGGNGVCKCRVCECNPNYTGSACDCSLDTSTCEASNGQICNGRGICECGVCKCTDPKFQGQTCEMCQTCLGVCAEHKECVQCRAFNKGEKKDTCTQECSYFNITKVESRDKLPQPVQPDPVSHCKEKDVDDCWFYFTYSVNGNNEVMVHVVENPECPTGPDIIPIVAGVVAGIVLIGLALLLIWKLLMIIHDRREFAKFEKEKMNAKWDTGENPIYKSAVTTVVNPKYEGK
Experimental: In addition, the invention discloses methods whereby the integrin-modulating activity of ajoene enantiomers may be assessed. One such method involves VLA-4-mediated adhesion of enzyme-labeled PM1 cells to VCAM-1-coated artificial substrata. Specifically, the cells were exposed to isolated ajoene enantiomers (or the vehicle thereof) and allowed to adhere to immobilized VCAM-1. Thereafter, the adherent cells were lyzed and, following addition of the substrate of the enzyme and incubation, the activity of the enzyme was measured spectrophotometrically. The value of this parameter, characterizing the number of the adherent cells, is inversely proportional to the integrin-modulating activity of the compound.
Integrin-modulating activity of the enantiomers was compared in a well-defined system of inhibition of VLA-4-mediated adhesion of enzyme-labeled PM1 cells (NIH AIDS Repository, Rockville, Md.) to VCAM-1-coated artificial substrata. In this experiment, enzyme-linked immunosorbent assay (ELISA) plates were coated with rabbit anti-human IgG (Fc-specific). Aliquots of 100 μL of supernatant from VCAM/IgG-secreting COS7 cells were added to each well, the plates incubated at 37° C. for 1 hour, and the wells washed with phosphate-buffered saline (PBS). […] The reaction was stopped with 0.5 M H2SO4, andthe optical density of the wells, read at 450 nm. […]

Row | Compound | IC100 of syncytium formation [1] [micromoles per liter] | IC100 of syncytium formation ([1]; listed as Z(+)) [micromoles per liter] | IC100 of syncytium formation ([1]; listed as Z(−) enantiomer) [micromoles per liter] | adhesion-inhibiting activity relative to the other enantiomers / original 3:1 mixture (VLA-4) [fold]
1 | C=CCSS/C=C/C[S+]([O-])CC=C (racemic) [racemic E-ajoene, reference compound] | 50 |  |  | 
2 | C=CCSS/C=C\C[S+]([O-])CC=C (stereo not drawn) [Z(+)-ajoene, Z(+)-4,5,9-trithiadodeca-1,6,11-triene-9-oxide] |  | 50 |  | 
3 | C=CCSS/C=C\C[S+]([O-])CC=C (stereo not drawn) [Z(−)-ajoene, Z(−)-4,5,9-trithiadodeca-1,6,11-triene-9-oxide] | 12.5 |  | 12.5 | 4
4 | C=CCSSC=CC[S+]([O-])CC=C (racemic) [unseparated 3:1 mixture of racemic Z- and E-ajoenes, 4,5,9-trithiadodeca-1,6,11-triene-9-oxide, reference compound] | 50 |  |  | 
